Data set [1] can be described thus: Plasma pharmacokinetics in mice (another study, Table 2). Format: in vivo. The settings on record: mouse. As for the experimental part: In another study, liposome-entrapped bortezomib was administered to mice and the pharmacokinetic parameters were determined. The liposomes were composed of 22:0PC/mPEG-DSPE and were prepared as described in Example 7.
The conditions of data set [2]: cited from earlier work.
Data set [3] is described as follows: Pharmacokinetics in plasma, blood and tumor of SCID mice bearing CWR22 tumors (Example 7). Format: in vivo. The settings on record: for AUC(0-t): read-out: AUC(0-24 h). As for the experimental part:
Liposome formulations prepared as described herein were administered in vivo to mice. As described in Example 7, liposomes comprised of 22:0PC/mPEG-DSPE (95/5) and containing entrapped bortezomib were prepared and administered intravenously to tumor-bearing mice. A control group of mice was treated with bortezomib sold under the trade name VELCADE®, which is a mixture of bortezomib in mannitol. FIGS. 11A-11C show the concentration, in ng/mL, of bortezomib in plasma (FIG. 11A), blood (FIG. 11B) and tumor (FIG. 11C) for the drug in free form (diamonds) or entrapped in liposomes (squares).
Blood and tumor samples were taken at various time points. The bortezomib concentrations in blood, plasma and tumor tissues were determined by LC-MS.

Setting [4] is: male, SCID, mouse, iv, Plasma, mice, i.v. 0.8 mg/kg.
Where [5] appears, read: male, SCID, mouse, iv, Tumor, mice, i.v. 0.8 mg/kg.
[6] abbreviates: male, SCID, mouse, iv, Whole Blood, mice, i.v. 0.8 mg/kg.

The structures appear in SMILES notation. Where two headings read alike, the source gives them in different places.

One may read the Cmax as the maximum level reached in the sampled fluid or tissue. `CC(C)C[C@H](NC(=O)[C@H](Cc1ccccc1)NC(=O)c1cnccn1)B(O)O` [bortezomib]: the concentration at 5 min in data set [1] (intravenous, read-out: Conc. At 5 min.) was found to be 423 ± 33.6 ng/mL. Moreover, the AUC(0-t) was determined as 271 ng·h/mL in data set [1] (iv, read-out: AUC(0-24 h)); 59800 ng·h/mL in data set [3] (setting [4]); 12800 ng·h/mL in data set [3] (setting [5]); 37200 ng·h/mL in data set [3] (setting [6]). In addition, the clearance in data set [1] (iv, read-out: CL-obs (converted)) was 0.897 mL/min; in data set [3] (male, SCID, mouse, intravenous, 0.8 mg/kg, Plasma, estimated using T½α phase, read-out: CL-obs (converted)) it was 0.222 mL/min/kg. For the same molecule, the Vd in data set [1] (iv, read-out: Vss) is 0.37 L; in data set [3] (male, SCID, mouse, intravenous, 0.8 mg/kg, Plasma, estimated using T½α phase, read-out: Vss-obs) it was 0.0427 L/kg. Moreover, the maximum tolerated dose in data set [2] (intravenous bolus on days 1, 4, 8, and 11 of a 3-week cycle) is 1.56 mg/m^2; in data set [2] (patients with solid tumors, intravenously once or twice weekly), 1.3 mg/m^2. Besides, the “CL(app) = dose/AUC24 h” value in data set [3] (Whole Blood) worked out at 0.358 mL/min/kg. Besides, the Cmax in data set [3] (setting [4]) was determined as 23500 ng/mL; in data set [3] (setting [5]), 674 ng/mL; in data set [3] (setting [6]), 10300 ng/mL. Also, the half-life in data set [3] (male, SCID, mouse, iv, Plasma, mice, i.v. 0.8 mg/kg, read-out: T1/2(α) (converted)) is 2.7 h.

(Values after patent publication US20090092661A1, “LIPOSOME COMPOSITIONS FOR IN VIVO ADMINISTRATION OF BORONIC ACID COMPOUNDS” (priority 2007, published 2009).)
